In patent US11903912B2, “Composition for preventing and treating breast cancer including selenopsammaplin A as active ingredients” (Seoul National University R & DB Foundation, priority 2019, dated 2024):

Key:
[1] = test system: H3K79me2, E-cadherin, vimentin in breast tumors; assay: Cancer metastasis markers in tumor tissues, western blot; type: in vivo; conditions: tumors extracted from treated mice
Protocol: To verify that compound 2 is involved in the regulation of key factors such as H3K79me2, E-cadherin, and vimentin in vivo, the effect of compound 2 on the key factors in tumor tissues was analyzed using the following method.
The triple-negative breast cancer cell line MDA-MB-231 was spread at a concentration of 2×10^6 cells/well on a DMEM medium containing 10% FBS in a 6-well plate, cultured at 37° C. for 24 hours under a 5% CO2 condition, and then washed twice with phosphate-buffered saline (PBS). Attached cells were recovered and washed twice with PBS, and then boiling 2× sample loading buffer (250 mM Tris-HCl (pH 6.8), 4% SDS, 10% glycerol, 0.006% bromophenol blue, 2% β-mercaptoethanol, 50 mM sodium fluoride, and 5 mM sodium orthovanadate) was added thereto to disrupt the cells and the cells were left at 100° C. for 10 minutes. After cooling, the cells were stored at […] and […] at 37° C. immediately before use in protein quantification and electrophoresis. 10 μg of proteins were electrophoresed at 100 V for 2 hours using a 12% SDS-polyacrylamide gel (#456-1036, Bio-Rad, Hercules, Calif.). The separated proteins were transferred to a PVDF membrane (ISEQ15150, Millipore, Bedford, Mass.) at 100 V for 1 hour, and a blocking buffer (5% non-fat dry milk in TBS containing 0.1% Tween-20 (TBST)) was injected thereinto to culture the proteins at room temperature for 1 hour. After washing three times with TBST for 5 minutes, the corresponding single antibody was diluted with 5% non-fat dry milk in TBST and allowed to react with the membrane at 4° C. for 18 hours. The membrane [ISEQ 1S150, Millipore, Bedford, Mass.] was washed three times with TBST for 10 minutes, and then horseradish peroxidase (HRP)-conjugated secondary antibodies were diluted with 2.5% non-fat dry milk in TBST at a ratio of 1:2,000 and allowed to react with the membrane at room temperature for 2 hours. […] These were quantified using ImageJ software and are illustrated in FIG. 10B.

[2] = test system: HCT116 human colon cancer cells; assay: SRB cytotoxicity test, HCT116; type: cell-based; conditions: SRB assay, cultured 3 days
Protocol: (§1) A cytotoxicity test was performed using synthesized selenopsammaplin A and derivatives thereof (Lee S K et al […] Chem Biol Interact 115:215-28).
(§2) The cytotoxicity test was performed on a total of five representative cancer cell lines. The cytotoxicity of each compound was measured using an SRB assay method (human lung cancer cells, A549; human colon cancer cells, HCT116; human breast cancer cells, MDA-MB231; human liver cancer cells, SK-HEP-1; human gastric cancer cells, SNU638).
(§3) Each cell line was sub-cultured once or twice using Roswell Park Memorial Institute (RPMI) medium 1640 (RPMI 1640) or Dulbecco's Modified Eagle's Medium (DMEM) containing 10% fetal bovine serum (FBS) inactivated by heat, 100 units/mL of penicillin, 100 μg/mL of streptomycin, and 250 ng/mL of amphotericin B at 37° C. for 1 week under a 5% CO2 condition. All cells were […] in liquid nitrogen, and then passaged three or more times to be used in the experiment. The effects of compounds on cell growth were measured using a sulforhodamine B (SRB) method (Lee et al (1998) Chemico-Biol Interact 115:215-228).
(§4) Specifically, each human cancer cell line used in the present invention was sub-cultured in an RPMI medium containing 10% FBS, 1% PSF, and the like, and 10 μl of a sample dissolved in 10% DMSO and 190 μl (4-5×10^4 cells/ml) of the cell suspension were added to each well of a 96-well plate and cultured for 3 days. 190 μl of the cell suspension was added to at least 16 wells and cultured for 30 minutes, and used as a zero-day control. The cultured cells were fixed with 10% trichloroacetic acid (TCA) and then stained with an SRB solution, and the staining solution was dissolved with 10 mM Tris-base, and then absorbance at 515 nm was measured. Using the case of culturing in 10% DMSO as a control, cell viability according to each test material treatment was measured using Equation 1 below. Etoposide was used as a positive control. % Viability=(OD(sample)−OD(0-day))/(OD(10% DMSO)−OD(0-day))×100 [Equation 1]
(§5) Assuming that a control not-treated with the sample was set at 100%, the values of sample-treated groups were expressed as percentage with respect to the control, and each test material treatment results were obtained as the mean±SEM of two or three tests. The IC50 value is the concentration of the test material for a 50% survival rate.

[3] = test system: A549 human lung cancer cells; assay: SRB cytotoxicity test, A549; type: cell-based; conditions: SRB assay, cultured 3 days
Protocol: as §1, §2, §3, §4, §5

Structure (SMILES): O=C(NCC[Se][Se]CCNC(=O)/C(Cc1ccccc1)=N/O)/C(Cc1ccccc1)=N/O [Compound 2, (2E,2′E)-N,N′-(diselenediylbis(ethane-2,1-diyl))bis(2-(hydroxyimino)-3-phenylpropanamide)]
- E-cadherin in breast tumors [1]: increased in a concentration-dependent manner
- histone methylation (H3K79me2) in breast tumors [1]: reduced in a concentration-dependent manner
- vimentin in breast tumors [1]: reduced in a concentration-dependent manner
- IC50 [2]: 90 nM
- IC50 [3]: 80 nM
